Laboratory results from patent publication US7223839B2, “Histamine receptor H3 polynucleotides” (Merck & Co., Inc., priority 2001, dated 2007).

Tests used:
[1] = molecular target: H3g receptor variant (Homo sapiens, UniProt Q9Y5N1, DEL7-42); details: COS-7 cells transfected with H3g; 1 μM BODIPY-L-Histamine or Fluorescein Histamine in PBS, 37° C., 30 min; compared with H3a wild type
Procedure: (§1) The full length wild type receptor (H3a) and receptor variants H3g and H3h, as well as the variant H3b (which contains the 240 base, 80 amino acid deletion in intracellular loop 3 (i3) but not the N-terminal 108 base, 36 amino acid deletion), were cloned in pCDNA3.0 eukaryotic expression vector for expression in COS-7 cells. The COS-7 cells grown in culture chambers were transfected with 2 μg of plasmid DNA containing one of the H3 receptor or receptor variants with superfect (Qiagen) transfection reagent.
(§2) Binding of Histamine to receptor or receptor variant was determined by BODIPY-L-Histamine or Fluorescein Histamine (Molecular Probes). Briefly, the transfected cells were washed with PBS and 1 μM of BODIPY-L-Histamine or Fluorescein Histamine in PBS was added to the cells and incubated at 37° C. for 30 min. Unbound fluorescent labeled histamine was washed in cold PBS and the slides were examined immediately under a fluorescent microscope.

[2] = molecular target: H3b variant (Homo sapiens, UniProt Q9Y5N1, E19D); details: COS-7 cells transfected with H3b; 1 μM BODIPY-L-Histamine or Fluorescein Histamine in PBS, 37° C., 30 min; compared with H3a wild type
Procedure: as §1, §2

[3] = molecular target: H3h receptor variant (Homo sapiens, UniProt Q9Y5N1, DEL7-42); details: COS-7 cells transfected with H3h; 1 μM BODIPY-L-Histamine or Fluorescein Histamine in PBS, 37° C., 30 min; compared with H3a wild type
Procedure: as §1, §2

Chain of H3g receptor variant (Q9Y5N1 with tags, fused parts or gaps DEL7-42): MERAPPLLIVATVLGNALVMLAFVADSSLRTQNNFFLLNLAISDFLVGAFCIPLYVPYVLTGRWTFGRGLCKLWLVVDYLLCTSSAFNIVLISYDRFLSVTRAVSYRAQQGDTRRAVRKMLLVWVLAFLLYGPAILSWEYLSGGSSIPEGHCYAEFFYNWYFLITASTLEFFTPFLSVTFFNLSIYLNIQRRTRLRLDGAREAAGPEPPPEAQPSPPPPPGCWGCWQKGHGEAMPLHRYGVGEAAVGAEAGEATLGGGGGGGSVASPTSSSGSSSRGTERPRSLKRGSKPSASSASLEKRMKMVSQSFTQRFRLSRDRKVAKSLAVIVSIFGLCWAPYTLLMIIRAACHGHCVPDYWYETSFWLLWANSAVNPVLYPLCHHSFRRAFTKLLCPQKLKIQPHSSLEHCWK
Chain of H3b variant (Q9Y5N1 1-365 isoform Q9Y5N1-3 E19D): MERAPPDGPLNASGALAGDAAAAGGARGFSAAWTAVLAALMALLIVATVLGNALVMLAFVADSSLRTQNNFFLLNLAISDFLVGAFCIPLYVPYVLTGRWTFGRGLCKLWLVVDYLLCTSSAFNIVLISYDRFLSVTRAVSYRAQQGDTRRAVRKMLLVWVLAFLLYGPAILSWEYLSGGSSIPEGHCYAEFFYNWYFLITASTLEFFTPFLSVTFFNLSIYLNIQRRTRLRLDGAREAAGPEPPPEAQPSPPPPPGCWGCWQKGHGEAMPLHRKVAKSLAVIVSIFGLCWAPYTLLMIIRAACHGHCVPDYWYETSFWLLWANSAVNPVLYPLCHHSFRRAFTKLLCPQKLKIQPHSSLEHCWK
Chain of H3h receptor variant (Q9Y5N1 with tags, fused parts or gaps isoform Q9Y5N1-3 DEL7-42): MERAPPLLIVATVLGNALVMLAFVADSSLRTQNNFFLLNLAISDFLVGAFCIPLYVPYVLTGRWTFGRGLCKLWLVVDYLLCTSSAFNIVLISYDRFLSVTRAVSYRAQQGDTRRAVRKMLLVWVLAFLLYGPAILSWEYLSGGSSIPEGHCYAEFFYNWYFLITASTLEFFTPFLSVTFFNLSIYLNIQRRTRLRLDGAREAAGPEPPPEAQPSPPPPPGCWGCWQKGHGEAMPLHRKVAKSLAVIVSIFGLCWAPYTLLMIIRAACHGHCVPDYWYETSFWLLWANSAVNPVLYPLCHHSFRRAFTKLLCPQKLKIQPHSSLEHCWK

`NCCc1c[nH]cn1` [histamine] was tested, and the histamine binding [1] was “comparable to the cell transfected with the H3a wild type receptor”, the histamine binding [2] was “comparable to the cell transfected with the H3a wild type receptor” and the histamine binding [3] was “comparable to the cell transfected with the H3a wild type receptor”.
